Assay results: patent US7615238B2, “Plaster for the treatment of dysfunctions and disorders of nails, comprising sertaconazole” (Trommsdorff GmbH & Co. KG Arzneimitttel, priority 2001, dated 2009)

Test system: fungi such as Trichophyton mentagrophytes, Trichophyton rubrum, Candida albicans, Microsporum canis, Aspergillus niger
Assay: Efficacy against fungi in comparison with other antifungal agents
Conditions: in most cases, Trichosporum, Alternaria, Acremonium, Fusarium, Scopulariopsis

## (R,S)-1-[2-[(7-Chloro-3-benzo[b]thienyl)-methoxy]-2-(2,4-dichlorophenyl)-ethyl]-1H-imidazole [sertaconazole]
  efficacy against fungi in comparison with econazole, ketonazole, miconazole, or bifonazole: higher efficacy
